In the assay the target is T1, Human CYP8B1 (Homo sapiens, UniProt Q9UNU6).
T1 sequence (Q9UNU6 1-501): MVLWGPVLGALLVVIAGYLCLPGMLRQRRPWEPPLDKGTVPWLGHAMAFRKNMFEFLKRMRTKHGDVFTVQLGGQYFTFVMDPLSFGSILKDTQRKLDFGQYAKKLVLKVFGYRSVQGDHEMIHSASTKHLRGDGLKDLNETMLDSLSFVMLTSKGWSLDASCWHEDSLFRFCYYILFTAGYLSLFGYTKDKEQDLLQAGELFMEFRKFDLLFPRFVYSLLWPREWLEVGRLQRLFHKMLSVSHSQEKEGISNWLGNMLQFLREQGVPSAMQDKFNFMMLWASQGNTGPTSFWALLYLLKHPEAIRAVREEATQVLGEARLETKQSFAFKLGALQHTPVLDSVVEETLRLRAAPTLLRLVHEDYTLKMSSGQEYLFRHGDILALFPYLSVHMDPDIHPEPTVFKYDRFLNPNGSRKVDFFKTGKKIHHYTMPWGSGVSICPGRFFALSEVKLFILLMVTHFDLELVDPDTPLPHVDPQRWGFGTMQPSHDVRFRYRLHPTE
The assay is described as follows: Human CYP8B1 Liver Microsome Assay. The conditions noted are these: Human CYP8B1 IC50, human liver microsomes; substrate 7a-hydroxy-4-cholesten-3-one, NADPH; RapidFire MS detection of 7α,12α-dihydroxy-4-cholesten-3-one.

Broadly, the IC50 is the concentration that inhibits the measured activity by half. A high value points to weaker potency. `CC1CN(c2c(C#N)c(C(F)F)nc3ccc(Cl)cc23)CCC1C(=O)N1CCn2c(nnc2C(F)(F)F)C1` (stereo not shown) [Example 57, 6-chloro-2-(difluoromethyl)-4-(3-methyl-4-{[3-(trifluoromethyl)-5,6-dihydro[1,2,4]triazolo[4,3-a]pyrazin-7(8H)-yl]carbonyl}piperidin-1-yl)quinoline-3-carbonitrile] returned a half-inhibitory concentration (IC50) of 69 nM.

As for `CC(C)COc1ccc2c(N3CCC(C(=O)N4CCn5c(nnc5C(F)(F)F)C4)CC3)c(C#N)cnc2c1` [Example 69], the midpoint of inhibition, the IC50, lay at 0.42 nM.

Molecule `N#Cc1cnc2ccc(Cl)cc2c1N1CC[C@H](C(=O)N2CCn3c(nnc3C(F)(F)F)C2)[C@H](C2CC2)C1` [Example 76c, 6-chloro-4-[(3S,4S)-3-cyclopropyl-4-{[3-(trifluoromethyl)-5,6-dihydro[1,2,4]triazolo[4,3-a]pyrazin-7(8H)-yl]carbonyl}piperidin-1-yl]quinoline-3-carbonitrile] registered an IC50 of 0.29 nM.

`N#Cc1cnc2ccc(Cl)cc2c1N1CC[C@@]2(C(=O)N3CCn4c(nnc4C(F)(F)F)C3)C[C@H]2C1` (single isomer, unassigned) [Example 81b]: the half-maximal inhibitory concentration (IC50) is 1930 nM.

As for `C[C@@H]1CN(c2c(C#N)cnc3ccccc23)CC[C@@H]1C(=O)N1CCn2c(nnc2C(F)(F)F)C1` [Example 79, 4-[(3S,4S)-3-methyl-4-{[3-(trifluoromethyl)-5,6-dihydro[1,2,4]triazolo[4,3-a]pyrazin-7(8H)-yl]carbonyl}piperidin-1-yl]quinoline-3-carbonitrile], the IC50 stood at 1.6 nM.

Molecule `CC1CC(C(=O)N2CCn3c(nnc3C(F)(F)F)C2)CCN1c1c(C#N)cnc2ccc(Cl)cc12` (single isomer, unassigned) [Example 73b, 6-chloro-4-[(2R,4R) or (2S,4S)-2-methyl-4-{[3-(trifluoromethyl)-5,6-dihydro[1,2,4]triazolo[4,3-a]pyrazin-7(8H)-yl]carbonyl}piperidin-1-yl]quinoline-3-carbonitrile] registered an IC50 of 15 nM.

In turn, `C[C@@H]1CN(c2c(C#N)c(C(F)F)nc3ccc(Cl)cc23)CC[C@@H]1C(=O)N1CCn2c(nnc2C(F)(F)F)C1` (single isomer, unassigned) [Example 57a] returned an IC50 of 41 nM.

As for `C[C@@H]1CN(c2c(C#N)cnc3ccc(Cl)cc23)CC[C@@H]1C(=O)N1CCn2c(nnc2C(F)(F)F)C1` (single isomer, unassigned) [Example 116a], the 50% inhibitory concentration (IC50) was determined as 0.4 nM.

In the case of `C[C@@H]1CN(c2c(C#N)cnc3cc(F)c(F)cc23)CC[C@@H]1C(=O)N1CCn2c(nnc2C(F)(F)F)C1` [Example 25, 6,7-difluoro-4-[(3S,4S)-3-methyl-4-{[3-(trifluoromethyl)-5,6-dihydro[1,2,4]triazolo[4,3-a]pyrazin-7(8H)-yl]carbonyl}piperidin-1-yl]quinoline-3-carbonitrile], the IC50 came out at 0.36 nM.

With `Cc1nc2ccc(C3CC3)cc2c(N2CCC(C(=O)N3CCn4c(nnc4C(F)(F)F)C3)CC2)c1C#N` [Example 53, 6-cyclopropyl-2-methyl-4-(4-(3-(trifluoromethyl)-5,6,7,8-tetrahydro-[1,2,4]triazolo[4,3-a]pyrazine-7-carbonyl)piperidin-1-yl)quinoline-3-carbonitrile], inhibition was half-maximal at 76 nM (IC50).

Take `COc1ccc2c(N3CC[C@H](C(=O)N4CCn5c(nnc5C(F)(F)F)C4)[C@H](C)C3)c(C#N)cnc2c1` [Example 28, 7-methoxy-4-[(3S,4S)-3-methyl-4-{[3-(trifluoromethyl)-5,6-dihdyro[1,2,4]triazolo[4,3-a]pyrazin-7(8H)-yl]carbonyl}piperidin-1-yl]quinoline-3-carbonitrile]: the midpoint of inhibition, the IC50, lay at 0.61 nM.

In turn, `Cc1nc2ccc(Cl)cc2c(N2CC[C@H](C(=O)N3CCc4n[nH]c(C(F)(F)F)c4C3)[C@H](C)C2)c1C#N` [Example 92, 6-chloro-2-methyl-4-[(3S,4S)-3-methyl-4-{[3-(trifluoromethyl)-2,4,6,7-tetrahydro-5H-pyrazolo[4,3-c]pyridin-5-yl]carbonyl}piperidin-1-yl]quinoline-3-carbonitrile] had an IC50 of 35 nM.

In turn, `Cc1nc2ccc(F)cc2c(N2CCC(C(=O)N3CCn4c(nnc4C(F)(F)F)C3)CC2)c1C#N` [Example 45, 6-fluoro-2-methyl-4-(4-(3-(trifluoromethyl)-5,6,7,8-tetrahydro-[1,2,4]triazolo[4,3-a]pyrazine-7-carbonyl)piperidin-1-yl)quinoline-3-carbonitrile] displayed a half-maximal inhibitory concentration (IC50) of 1150 nM.

On to `COc1cccc2c(N3CC[C@H](C(=O)N4CCn5c(nnc5C(F)(F)F)C4)[C@H](C)C3)c(C#N)cnc12` [Example 11, 8-methoxy-4-[(3S,4S)-3-methyl-4-{[3-(trifluoromethyl)-5,6-dihydro[1,2,4]triazolo[4,3-a]pyrazin-7(8H)-yl]carbonyl}piperidin-1-yl]quinoline-3-carbonitrile], for which the half-maximal inhibitory concentration (IC50) was found to be 2.5 nM.

`Cc1nc2cc(F)c(F)cc2c(N2CCC(C(=O)N3CCn4c(nnc4C(F)(F)F)C3)CC2)c1C#N` [Example 50, 6,7-difluoro-2-methyl-4-(4-(3-(trifluoromethyl)-5,6,7,8-tetrahydro-[1,2,4]triazolo[4,3-a]pyrazine-7-carbonyl)piperidin-1-yl)quinoline-3-carbonitrile]: half-maximal inhibition (IC50) was put at 2260 nM.

`Cc1nc2ccc(Cl)cc2c(N2CC[C@H](C(=O)N3CCn4nccc4C3)[C@H](C)C2)c1C#N` [Example 96, 6-chloro-4-[(3S,4S)-4-(6,7-dihydropyrazolo[1,5-a]pyrazin-5(4H)-ylcarbonyl)-3-methylpiperidin-1-yl]-2-methylquinoline-3-carbonitrile] registered a half-maximal inhibitory concentration (IC50) of 8.6 nM.

`C[C@@H]1CN(c2c(C#N)cnc3cc(C(F)F)ccc23)CC[C@@H]1C(=O)N1CCn2c(nnc2C(F)(F)F)C1` [Example 23, 7-(difluoromethyl)-4-((3S,4S)-3-methyl-4-(3-(trifluoromethyl)-5,6,7,8-tetrahydro-[1,2,4]trizolo[4,3-a]pyrazine-7-carbonyl)piperidin-1-yl)quinolone-3-carbonitrile] showed an IC50 of 0.5 nM.

Consider `Cc1nc2ccc(F)c(F)c2c(N2CCC(C(=O)N3CCn4c(nnc4C(F)(F)F)C3)CC2)c1C#N` [Example 51, 5,6-difluoro-2-methyl-4-(4-(3-(trifluoromethyl)-5,6,7,8-tetrahydro-[1,2,4]triazolo[4,3-a]pyrazine-7-carbonyl)piperidin-1-yl)quinoline-3-carbontrile], for which the IC50 is 774 nM.

`CC1CN(c2c(C#N)cnc3ccc(F)cc23)CCC1C(=O)N1CCn2c(nnc2C(F)(F)F)C1` (stereo not shown) [Example 117, 6-fluoro-4-(3-methyl-4-{[3-(trifluoromethyl)-5,6-dihydro[1,2,4]triazolo[4,3-a]pyrazin-7(8H)-yl]carbonyl}piperidin-1-yl)quinoline-3-carbonitrile] showed an IC50 of 1.2 nM.

`CC[C@H]1CN(c2c(C#N)cnc3c(F)c(OC)ccc23)CC[C@H]1C(=O)N1CCn2c(nnc2C(F)(F)F)C1` [Example 74a, 4-[(3R,4R)-3-ethyl-4-{[3-(trifluoromethyl)-5,6-dihydro[1,2,4]triazolo[4,3-a]pyrazin-7(8H)-yl]carbonyl}piperidin-1-yl]-8-fluoro-7-methoxyquinoline-3-carbonitrile] returned a 50% inhibitory concentration (IC50) of 343 nM.

In turn, `C[C@@H]1CN(c2c(C#N)cnc3c(F)c(C4CC4)ccc23)CC[C@@H]1C(=O)N1CCn2c(nnc2C(F)(F)F)C1` [Example 67, 7-cyclopropyl-8-fluoro-4-[(3S,4S)-3-methyl-4-{[3-(trifluoromethyl)-5,6-dihydro[1,2,4]triazolo[4,3-a]pyrazin-7(8H)-yl]carbonyl}piperidin-1-yl]quinoline-3-carbonitrile] displayed a half-inhibitory concentration (IC50) of 0.89 nM.

For the molecule `Cc1nc2ccc(Cl)cc2c(N2CC[C@H](C(=O)N3CCn4cc(C(F)(F)F)nc4C3)[C@H](C)C2)c1C#N` [Example 99, 6-chloro-2-methyl-4-[(3S,4S)-3-methyl-4-{[2-(trifluoromethyl)-5,6-dihydroimidazo[1,2-a]pyrazin-7(8H)-yl]carbonyl}piperidin-1-yl]quinoline-3-carbonitrile], the midpoint of inhibition, the IC50, lay at 52 nM.

With `C[C@@H]1CN(c2c(C#N)cnc3cc(C(C)(F)F)ccc23)CC[C@@H]1C(=O)N1CCn2c(nnc2C(F)(F)F)C1` [Example 78, 7-(1,1-difluoroethyl)-4-[(3S,4S)-3-methyl-4-{[3-(trifluoromethyl)-5,6-dihydro[1,2,4]triazolo[4,3-a]pyrazin-7(8H)-yl]carbonyl}piperidin-1-yl]quinoline-3-carbonitrile], the half-maximal inhibitory concentration (IC50) amounted to 1 nM.

Take `COc1ccc2c(N3CC[C@@H](C(=O)N4CCn5c(nnc5C(F)(F)F)C4)[C@@H](C4CC4)C3)c(C#N)cnc2c1F` [Example 77a, 4-[(3R,4R)-3-cyclopropyl-4-{[3-(trifluoromethyl)-5,6-dihydro[1,2,4]triazolo[4,3-a]pyrazin-7(8H)-yl]carbonyl}piperidin-1-yl]-8-fluoro-7-methoxyquinoline-3-carbonitrile]: the half-inhibitory concentration (IC50) is 231 nM.

`C[C@@H]1CN(c2c(C#N)cnc3c(F)cccc23)CC[C@@H]1C(=O)N1CCn2c(nnc2C(F)(F)F)C1` [Example 12, 8-fluoro-4-[(3S,4S)-3-methyl-4-{[3-(trifluoromethyl)-5,6-dihydro[1,2,4]triazolo[4,3-a]pyrazin-7(8H)-yl]carbonyl}piperidin-1-yl]quinoline-3-carbonitrile] returned an IC50 of 1.1 nM.

The record behind these values is US10414774B2, “Compound useful for altering the levels of bile acids for the treatment of diabetes and cardiometabolc disease” (Merck Sharp & Dohme Corp., priority 2016, dated 2019).
